Read-outs that look alike come from different tables or passages of the source.
Tests used:
Format in all cases: cell-based
[1] = target: T1, protein kinases (human kinome) (Homo sapiens, UniProt O14965); settings: experiment wp016
T1 sequence (O14965 1-403): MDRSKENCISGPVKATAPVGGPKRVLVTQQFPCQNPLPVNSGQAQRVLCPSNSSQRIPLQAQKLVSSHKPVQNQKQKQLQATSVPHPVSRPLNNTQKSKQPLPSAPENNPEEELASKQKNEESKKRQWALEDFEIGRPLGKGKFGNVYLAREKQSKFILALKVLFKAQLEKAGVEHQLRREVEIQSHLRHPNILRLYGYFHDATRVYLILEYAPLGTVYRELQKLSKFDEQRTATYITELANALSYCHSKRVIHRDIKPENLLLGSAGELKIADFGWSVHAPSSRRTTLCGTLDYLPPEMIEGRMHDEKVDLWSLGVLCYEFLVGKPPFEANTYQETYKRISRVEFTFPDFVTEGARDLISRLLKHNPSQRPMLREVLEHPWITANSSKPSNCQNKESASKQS
Source text: (§1) Although development of targeted protein degraders requires a POI binder, among already-liganded proteins such as kinases, it was hypothesized that different targets would have a different propensity for current approaches to degrader-mediated destruction, which was termed ‘degradability’. […] It was rationalized that the probability of identifying the same kinase as a false positive in multiple treatments is low, therefore this analysis served to also assess the robustness of our data and subsequent interpretations. […] Overall, 62 protein kinases were degraded in more than 10 independent treatments, and remarkably, 9 of these (CDK4, AURKA, FER, WEE1, BLK. LIMK2, CDK6, GAK, LIMK1) were each degraded in at least 40 of the 154 independent treatments, emphasizing their predisposition to induced degradation (FIG. 1G; Appendix I).
(§2) Next, the frequency of degradation assessment was corrected for over-representation of molecules in the full dataset by omitting replicate profiling of compounds under different experimental conditions, to remove any bias. […] Unsurprisingly, the top degradable kinases mirror those from the previous analysis (CDK4, AURKA, FER, WEE1, BLK), confirming that in sufficiently large datasets, even with over-representation of certain molecules, frequency of degradation is a good measure of general tractability.

[2] = target: protein kinases (human kinome) (Homo sapiens, UniProt P24941); settings: experiment wp016
Source text: as §1, §2

[3] = target: protein kinases (human kinome) (Homo sapiens, UniProt P50613)
Source text: as §1, §2

[4] = target: protein kinases (human kinome) (Homo sapiens, UniProt P11802); settings: experiment wp016
Source text: as §1, §2

[5] = target: protein kinases (human kinome) (Homo sapiens, UniProt Q14004); settings: experiment wp016
Source text: as §1, §2

[6] = target: protein kinases (human kinome) (Homo sapiens, UniProt Q9NYV4); settings: experiment wp016
Source text: as §1, §2

[7] = target: protein kinases (human kinome) (Homo sapiens, UniProt Q00537); settings: experiment wp016
Source text: as §1, §2

[8] = target: protein kinases (human kinome) (Homo sapiens, UniProt P16591)
Source text: as §1, §2

[9] = target: protein kinases (human kinome) (Homo sapiens, UniProt Q00534)
Source text: as §1, §2

[10] = test system: protein kinases (human kinome)
Source text: as §1, §2

[11] = target: protein kinases (human kinome) (Homo sapiens, UniProt P30291); settings: experiment wp016
Source text: as §1, §2

[12] = target: protein kinases (human kinome) (Homo sapiens, UniProt Q00535); settings: experiment wp016
Source text: as §1, §2

[13] = target: protein kinases (human kinome) (Homo sapiens, UniProt Q9NSY1); settings: BMP2K Q9NSY1; experiment wp016
Source text: as §1, §2

[14] = target: protein kinases (human kinome) (Homo sapiens, UniProt P53671); settings: experiment wp016
Source text: as §1, §2

[15] = target: T2, protein kinases (human kinome) (Homo sapiens, UniProt Q08881); settings: experiment wp016
T2 sequence (Q08881 1-620): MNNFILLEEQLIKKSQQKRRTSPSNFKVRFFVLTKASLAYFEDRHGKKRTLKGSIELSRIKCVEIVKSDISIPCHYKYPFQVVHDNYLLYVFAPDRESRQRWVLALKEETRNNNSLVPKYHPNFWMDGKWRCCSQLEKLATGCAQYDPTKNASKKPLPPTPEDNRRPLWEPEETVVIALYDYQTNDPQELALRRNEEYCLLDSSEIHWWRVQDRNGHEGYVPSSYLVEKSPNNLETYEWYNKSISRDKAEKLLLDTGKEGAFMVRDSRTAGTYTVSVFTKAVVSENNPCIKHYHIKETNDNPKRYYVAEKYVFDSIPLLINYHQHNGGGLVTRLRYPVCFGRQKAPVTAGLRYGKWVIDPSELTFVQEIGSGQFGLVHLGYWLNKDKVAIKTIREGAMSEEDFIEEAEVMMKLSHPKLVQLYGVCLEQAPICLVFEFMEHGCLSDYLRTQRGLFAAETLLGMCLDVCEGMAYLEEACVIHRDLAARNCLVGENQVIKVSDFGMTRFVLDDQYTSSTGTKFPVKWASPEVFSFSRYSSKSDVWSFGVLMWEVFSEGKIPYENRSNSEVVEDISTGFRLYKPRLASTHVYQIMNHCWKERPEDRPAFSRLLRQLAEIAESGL
Source text: as §1, §2

[16] = target: protein kinases (human kinome) (Homo sapiens, UniProt Q2M2I8); settings: experiment wp016
Source text: as §1, §2

[17] = target: protein kinases (human kinome) (Homo sapiens, UniProt O94804); settings: STK10 (O94804), experiment wp016
Source text: as §1, §2

[18] = target: protein kinases (human kinome) (Homo sapiens, UniProt P51451)
Source text: as §1, §2

[19] = target: protein kinases (human kinome) (Homo sapiens, UniProt Q14289)
Source text: as §1, §2

Sequence of protein kinases (human kinome) (Homo sapiens, UniProt Q9NYV4) (Q9NYV4 whole entry): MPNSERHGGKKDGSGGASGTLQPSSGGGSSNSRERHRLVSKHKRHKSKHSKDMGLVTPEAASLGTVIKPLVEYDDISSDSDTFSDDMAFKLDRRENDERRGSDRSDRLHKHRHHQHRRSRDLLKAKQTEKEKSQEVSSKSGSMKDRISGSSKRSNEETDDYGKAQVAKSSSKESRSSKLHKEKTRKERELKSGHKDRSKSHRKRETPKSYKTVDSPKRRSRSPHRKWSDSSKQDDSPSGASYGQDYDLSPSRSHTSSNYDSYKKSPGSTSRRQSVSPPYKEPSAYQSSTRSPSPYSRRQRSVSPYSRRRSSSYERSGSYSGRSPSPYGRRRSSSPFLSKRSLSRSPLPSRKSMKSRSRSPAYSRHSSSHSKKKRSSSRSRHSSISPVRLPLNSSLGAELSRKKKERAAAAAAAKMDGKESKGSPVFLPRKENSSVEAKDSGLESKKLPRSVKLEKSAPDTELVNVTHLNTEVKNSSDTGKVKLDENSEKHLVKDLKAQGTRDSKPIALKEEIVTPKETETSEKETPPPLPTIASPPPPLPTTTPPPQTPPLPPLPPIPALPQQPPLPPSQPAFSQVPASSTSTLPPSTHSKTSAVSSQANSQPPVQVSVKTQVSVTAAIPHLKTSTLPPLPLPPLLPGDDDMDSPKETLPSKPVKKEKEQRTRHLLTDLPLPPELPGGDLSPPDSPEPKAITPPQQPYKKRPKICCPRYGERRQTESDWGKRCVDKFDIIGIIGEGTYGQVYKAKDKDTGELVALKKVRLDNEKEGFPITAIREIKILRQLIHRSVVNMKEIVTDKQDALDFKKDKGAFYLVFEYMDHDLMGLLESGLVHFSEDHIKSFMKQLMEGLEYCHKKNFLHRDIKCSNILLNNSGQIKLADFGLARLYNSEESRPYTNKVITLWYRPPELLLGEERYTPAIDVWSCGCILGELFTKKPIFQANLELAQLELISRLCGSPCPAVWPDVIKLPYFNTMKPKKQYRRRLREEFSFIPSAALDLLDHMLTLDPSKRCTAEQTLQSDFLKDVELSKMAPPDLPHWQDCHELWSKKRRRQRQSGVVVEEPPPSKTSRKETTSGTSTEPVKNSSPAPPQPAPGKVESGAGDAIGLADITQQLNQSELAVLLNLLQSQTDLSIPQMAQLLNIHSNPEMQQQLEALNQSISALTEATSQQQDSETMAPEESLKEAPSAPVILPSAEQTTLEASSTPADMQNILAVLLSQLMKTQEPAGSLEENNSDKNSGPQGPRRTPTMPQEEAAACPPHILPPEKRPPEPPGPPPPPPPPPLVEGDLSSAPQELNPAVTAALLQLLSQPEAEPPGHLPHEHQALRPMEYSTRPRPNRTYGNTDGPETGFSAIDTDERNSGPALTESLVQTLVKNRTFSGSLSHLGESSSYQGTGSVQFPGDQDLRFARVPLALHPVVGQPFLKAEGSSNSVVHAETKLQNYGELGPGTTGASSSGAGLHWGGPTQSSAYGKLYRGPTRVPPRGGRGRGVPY
Sequence of protein kinases (human kinome) (Homo sapiens, UniProt P16591) (P16591 whole entry): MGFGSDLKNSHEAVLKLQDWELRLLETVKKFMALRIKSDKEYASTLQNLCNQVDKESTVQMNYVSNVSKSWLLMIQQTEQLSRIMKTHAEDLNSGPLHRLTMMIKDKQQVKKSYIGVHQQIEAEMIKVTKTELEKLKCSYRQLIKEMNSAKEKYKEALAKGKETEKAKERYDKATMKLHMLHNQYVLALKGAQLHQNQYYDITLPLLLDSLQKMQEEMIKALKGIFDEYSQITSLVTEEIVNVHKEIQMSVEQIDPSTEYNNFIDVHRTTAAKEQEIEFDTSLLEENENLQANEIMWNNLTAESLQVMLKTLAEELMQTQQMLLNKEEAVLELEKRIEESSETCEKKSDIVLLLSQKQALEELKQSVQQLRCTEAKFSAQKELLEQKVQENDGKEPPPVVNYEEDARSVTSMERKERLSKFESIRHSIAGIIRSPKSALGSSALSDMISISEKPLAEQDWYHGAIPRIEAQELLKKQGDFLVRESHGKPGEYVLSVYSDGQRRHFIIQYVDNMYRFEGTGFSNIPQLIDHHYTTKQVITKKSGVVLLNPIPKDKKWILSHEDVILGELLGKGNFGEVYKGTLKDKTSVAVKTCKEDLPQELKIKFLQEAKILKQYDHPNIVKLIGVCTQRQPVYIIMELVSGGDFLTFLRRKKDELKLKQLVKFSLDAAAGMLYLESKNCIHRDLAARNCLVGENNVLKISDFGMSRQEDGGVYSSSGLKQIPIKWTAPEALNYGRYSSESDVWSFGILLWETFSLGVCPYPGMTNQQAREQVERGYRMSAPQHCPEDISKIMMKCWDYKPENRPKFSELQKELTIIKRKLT
Sequence of protein kinases (human kinome) (Homo sapiens, UniProt Q00534) (Q00534 whole entry): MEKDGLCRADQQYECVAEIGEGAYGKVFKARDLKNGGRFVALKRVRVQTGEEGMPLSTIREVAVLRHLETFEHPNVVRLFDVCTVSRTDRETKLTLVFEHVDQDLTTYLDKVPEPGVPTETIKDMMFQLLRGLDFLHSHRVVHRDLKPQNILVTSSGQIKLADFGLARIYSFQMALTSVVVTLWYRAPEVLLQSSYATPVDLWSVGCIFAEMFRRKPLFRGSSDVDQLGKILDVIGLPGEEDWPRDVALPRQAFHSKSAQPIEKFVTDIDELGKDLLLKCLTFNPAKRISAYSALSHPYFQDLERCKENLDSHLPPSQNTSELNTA
Sequence of protein kinases (human kinome) (Homo sapiens, UniProt P30291) (P30291 whole entry): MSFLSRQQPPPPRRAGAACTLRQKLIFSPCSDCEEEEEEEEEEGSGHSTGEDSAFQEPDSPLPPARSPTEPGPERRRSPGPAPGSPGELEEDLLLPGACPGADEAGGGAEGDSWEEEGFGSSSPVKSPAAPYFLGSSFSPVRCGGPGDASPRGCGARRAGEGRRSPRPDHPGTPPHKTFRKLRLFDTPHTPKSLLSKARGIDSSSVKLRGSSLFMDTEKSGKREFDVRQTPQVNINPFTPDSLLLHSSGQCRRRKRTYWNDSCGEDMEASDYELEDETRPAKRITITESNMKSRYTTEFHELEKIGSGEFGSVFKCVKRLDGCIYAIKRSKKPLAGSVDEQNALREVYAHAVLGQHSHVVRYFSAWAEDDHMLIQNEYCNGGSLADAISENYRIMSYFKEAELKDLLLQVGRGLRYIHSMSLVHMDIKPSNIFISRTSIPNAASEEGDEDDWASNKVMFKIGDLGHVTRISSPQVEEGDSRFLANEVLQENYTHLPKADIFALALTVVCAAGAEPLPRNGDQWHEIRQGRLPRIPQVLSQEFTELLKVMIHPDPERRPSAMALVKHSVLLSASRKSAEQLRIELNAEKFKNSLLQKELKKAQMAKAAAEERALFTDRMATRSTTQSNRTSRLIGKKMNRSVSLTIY
Sequence of protein kinases (human kinome) (Homo sapiens, UniProt P11802) (P11802 whole entry): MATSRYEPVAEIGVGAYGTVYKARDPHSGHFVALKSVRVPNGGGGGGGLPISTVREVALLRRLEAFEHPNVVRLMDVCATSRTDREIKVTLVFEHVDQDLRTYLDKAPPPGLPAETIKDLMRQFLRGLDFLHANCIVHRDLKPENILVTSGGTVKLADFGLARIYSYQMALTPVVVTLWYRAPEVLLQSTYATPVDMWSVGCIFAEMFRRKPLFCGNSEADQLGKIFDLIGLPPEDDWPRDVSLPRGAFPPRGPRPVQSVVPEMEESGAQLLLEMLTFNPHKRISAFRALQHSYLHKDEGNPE
Sequence of protein kinases (human kinome) (Homo sapiens, UniProt P53671) (P53671 whole entry): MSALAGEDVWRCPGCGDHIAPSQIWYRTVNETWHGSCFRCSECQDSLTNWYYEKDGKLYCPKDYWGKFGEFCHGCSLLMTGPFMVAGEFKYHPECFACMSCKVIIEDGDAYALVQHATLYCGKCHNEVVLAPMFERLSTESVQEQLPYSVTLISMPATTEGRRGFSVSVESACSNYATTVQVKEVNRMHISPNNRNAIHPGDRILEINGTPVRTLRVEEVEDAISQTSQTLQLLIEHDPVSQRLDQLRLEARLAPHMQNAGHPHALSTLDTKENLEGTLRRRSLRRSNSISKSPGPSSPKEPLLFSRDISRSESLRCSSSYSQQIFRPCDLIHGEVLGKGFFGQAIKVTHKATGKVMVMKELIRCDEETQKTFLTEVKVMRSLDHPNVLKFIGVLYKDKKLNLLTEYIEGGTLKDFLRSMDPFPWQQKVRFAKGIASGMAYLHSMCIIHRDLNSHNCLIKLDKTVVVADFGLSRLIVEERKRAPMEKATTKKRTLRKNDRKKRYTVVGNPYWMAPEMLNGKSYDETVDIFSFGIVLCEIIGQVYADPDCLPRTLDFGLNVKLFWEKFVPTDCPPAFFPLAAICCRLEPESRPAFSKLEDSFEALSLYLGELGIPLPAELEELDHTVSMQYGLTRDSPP
Sequence of protein kinases (human kinome) (Homo sapiens, UniProt Q00537) (Q00537 whole entry): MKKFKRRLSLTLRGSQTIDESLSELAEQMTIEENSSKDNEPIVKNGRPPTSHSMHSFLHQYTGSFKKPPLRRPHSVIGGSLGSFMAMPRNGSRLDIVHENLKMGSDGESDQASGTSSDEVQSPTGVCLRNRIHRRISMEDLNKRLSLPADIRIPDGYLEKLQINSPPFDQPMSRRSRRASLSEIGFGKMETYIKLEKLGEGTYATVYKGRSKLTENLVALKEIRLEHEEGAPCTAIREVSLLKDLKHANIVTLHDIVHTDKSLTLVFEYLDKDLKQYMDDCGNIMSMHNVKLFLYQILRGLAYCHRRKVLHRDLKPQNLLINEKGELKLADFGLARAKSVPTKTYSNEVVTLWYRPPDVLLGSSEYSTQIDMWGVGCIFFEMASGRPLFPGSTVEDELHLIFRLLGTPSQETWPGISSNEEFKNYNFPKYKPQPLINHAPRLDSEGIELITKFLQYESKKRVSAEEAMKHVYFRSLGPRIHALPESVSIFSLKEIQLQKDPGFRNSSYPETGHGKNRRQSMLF
Sequence of protein kinases (human kinome) (Homo sapiens, UniProt Q00535) (Q00535 whole entry): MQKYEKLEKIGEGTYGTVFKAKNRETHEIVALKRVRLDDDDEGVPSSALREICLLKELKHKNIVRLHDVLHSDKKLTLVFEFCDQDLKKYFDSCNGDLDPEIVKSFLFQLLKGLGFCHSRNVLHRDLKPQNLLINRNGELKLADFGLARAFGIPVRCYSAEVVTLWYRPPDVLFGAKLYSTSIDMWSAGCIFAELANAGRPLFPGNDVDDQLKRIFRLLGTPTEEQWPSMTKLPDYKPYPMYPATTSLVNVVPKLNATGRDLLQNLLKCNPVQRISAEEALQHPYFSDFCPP

CC(C)S(=O)(=O)c1ccccc1Nc1nc(Nc2ccc(N3CCN(CCOCCOCCNC(=O)CNc4ccc5c(c4)C(=O)N(C4CCC(=O)NC4=O)C5=O)CC3)cc2)ncc1Cl (stereo not drawn) [LT2.49]
logFC AURKA (O14965) [1]: −1.853 | logFC CDK2 (P24941-1) [2]: −0.5177 | logFC CDK2 (P24941-1) ([2]; direction of change down): −0.5177 | logFC ([3]; CDK7 (P50613) protein abundance, degrader vs DMSO, down): −1.014 | logFC CDK7 ([3]; CDK7 P50613, experiment wp016): −1.014 | logFC CDK4 (P11802) [4]: −0.8985 | logFC CDK13 ([5]; Accession Q14004-1): −0.3839 | logFC CDK13 (Q14004-1) [5]: −0.3839 | logFC CDK12 ([6]; Accession Q9NYV4-1): −0.868 | logFC CDK12 ([6]; CDK12 (Q9NYV4-1)): −0.868 | logFC of CDK17 ([7]; Accession Q00537): −0.7544 | logFC CDK17 (Q00537) ([7]; direction of change down): −0.7544 | logFC of FER (P16591-1) ([8]; Experiment wp016, down): −2.467 | logFC of FER ([8]; FER P16591-1, experiment wp016): −2.467 | logFC CDK6 ([9]; CDK6 (Q00534), direction down, experiment wp016): −0.6531 | logFC of CDK6 (Q00534) ([9]; Experiment wp016, down): −0.6531 | logFC ([10]; CDK9 (P50750-2) protein abundance, degrader vs DMSO, down): −0.6469 | logFC PRKAA1 (Q13131-2) ([10]; Experiment wp016, direction down): −0.3739 | logFC LCK ([10]; LCK, accession P06239-3, experiment wp016, direction of change down): −0.6186 | logFC CDK9 (P50750-2) ([10]; experiment wp016): −0.6469 | logFC PRKAA1 (Q13131-2) ([10]; experiment wp016): −0.3739 | logFC LCK (P06239-3) ([10]; experiment wp016, direction of change down): −0.6186 | logFC WEE1 (P30291-1) [11]: −1.314 | logFC of CDK5 ([12]; Accession Q00535): −0.8608 | logFC CDK5 (Q00535) ([12]; direction of change down): −0.8608 | logFC [13]: −0.5079 | logFC BMP2K [13]: −0.5079 | logFC LIMK2 ([14]; LIMK2 (P53671), down): −0.9573 | logFC of LIMK2 ([14]; LIMK2 P53671): −0.9573 | logFC ITK (Q08881) [15]: −2.212 | logFC ITK (Q08881) ([15]; direction of change down): −2.212 | logFC AAK1 ([16]; AAK1 (Q2M218-1), down): −1.778 | logFC AAK1 ([16]; AAK1, accession Q2M218-1, direction of change down): −1.778 | logFC [17]: −0.3336 | logFC ([17]; direction down): −0.3336 | logFC of BLK ([18]; BLK P51451, experiment wp016): −1.613 | logFC of BLK (P51451) ([18]; Experiment wp016, down): −1.613 | logFC ([19]; PTK2B (Q14289-1) protein abundance, degrader vs DMSO, down): −3.365 | logFC PTK2B ([19]; PTK2B, accession Q14289-1, experiment wp016, direction of change down): −3.365

From patent publication US20240269139A1, “COMPOUNDS FOR TARGETED PROTEIN DEGRADATION OF KINASES” (DANA-FARBER CANCER INSTITUTE, INC., priority 2020, published 2024)
